Values quoted from earlier work as cited in patent publication US20100239707A1 (priority 2007, published 2010).
Entries after “also recorded” stand apart in the source; their conditions may differ.

Key:
[1] = unprimed
[2] = not given; remark: listed apart in the source

Row | Compound | effect on muscle fibers / myotubes (myotubes) | further results
1 | lipopolysaccharide [LPS] | – | LD50 [1]: ~1 mg/kg
2 | COC(=O)Nc1nc2ccc(C(=O)c3cccs3)cc2[nH]1 [nocodazole] | causes the disassembly of myotubes; also recorded: result in cell fission with cells that exhibit DNA sysnthesis and cell growth | –
3 | COc1ccc(CNc2nc(NCc3ccc(OC)cc3)c3ncn(C(C)C)c3n2)cc1 [myoseverin] | result in cell fission with cells that exhibit DNA sysnthesis and cell growth | –
4 | CC[C@]1(O)C[C@@H]2CN(CCc3c([nH]c4ccccc34)[C@@](C(=O)OC)(c3cc4c(cc3OC)N(C)[C@H]3[C@@](O)(C(=O)OC)[C@H](OC(C)=O)[C@]5(CC)C=CCN6CC[C@]43[C@@H]65)C2)C1 [vinblastine] | causes the disassembly of myotubes | oral LD50: 300 to 400 mg/kg
5 | OO [hydrogen peroxide] | – | concentration inducing apoptosis (cell culture cells): micromolar concentrations
6 | COc1cc2c(c(OC)c1OC)-c1ccc(OC)c(=O)cc1[C@@H](NC(C)=O)CC2 [colchicine] | causes the disassembly of myotubes | –
7 | CC(=O)O[C@H]1C(=O)[C@@]2(C)[C@H]([C@H](OC(=O)c3ccccc3)[C@]3(O)C[C@H](OC(=O)[C@H](O)[C@@H](NC(=O)c4ccccc4)c4ccccc4)C(C)=C1C3(C)C)[C@]1(OC(C)=O)CO[C@@H]1C[C@@H]2O [taxol] | causes the disassembly of myotubes | intravenous LD50 [2]: 33 mg/kg
8 | [Ca+2].[Cl-].[Cl-] [anhydrous CaCl2, CaCl2] | – | intravenous LD50 [2]: about 40 mg/kg
